In PubChem BioAssay (NCI):
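Exposure lasted 48 hours, with cells grown in 96-well plates and compounds tested at five concentrations. At the TGI there is no net growth.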

Tests used:
Experiment in all cases: growth of human tumour cells (NCI), 48 h
NCI-H226 lung = tested on: NCI-H226 lung
CAKI-1 renal = tested on: CAKI-1 renal
SF-268 CNS = tested on: SF-268 CNS
HCC-2998 colon = tested on: HCC-2998 colon
LOX IMVI melanoma = tested on: LOX IMVI melanoma
MCF7 breast = tested on: MCF7 breast
SK-MEL-28 melanoma = tested on: SK-MEL-28 melanoma
MOLT-4 leukemia = tested on: MOLT-4 leukemia
OVCAR-3 ovarian = tested on: OVCAR-3 ovarian
HS 578T breast = tested on: HS 578T breast
SK-OV-3 ovarian = tested on: SK-OV-3 ovarian
SNB-19 CNS = tested on: SNB-19 CNS
DU-145 prostate = tested on: DU-145 prostate
HCT-116 colon = tested on: HCT-116 colon
MDA-N = tested on: MDA-N
A498 renal = tested on: A498 renal
SF-539 CNS = tested on: SF-539 CNS
RXF 393 renal = tested on: RXF 393 renal
OVCAR-8 ovarian = tested on: OVCAR-8 ovarian
UACC-62 melanoma = tested on: UACC-62 melanoma
A549 NSCLC = tested on: A549 NSCLC
SK-MEL-2 melanoma = tested on: SK-MEL-2 melanoma
T-47D breast = tested on: T-47D breast
OVCAR-5 ovarian = tested on: OVCAR-5 ovarian
MDA-MB-231 breast = tested on: MDA-MB-231 breast
IGROV1 ovarian = tested on: IGROV1 ovarian
MDA-MB-435 = tested on: MDA-MB-435
M14 melanoma = tested on: M14 melanoma
OVCAR-4 ovarian = tested on: OVCAR-4 ovarian
HT29 colon = tested on: HT29 colon
SK-MEL-5 melanoma = tested on: SK-MEL-5 melanoma
HL-60(TB) leukemia = tested on: HL-60(TB) leukemia
HCT-15 colon = tested on: HCT-15 colon
SR leukemia = tested on: SR leukemia
PC-3 prostate = tested on: PC-3 prostate
SNB-75 CNS = tested on: SNB-75 CNS
BT-549 breast = tested on: BT-549 breast
RPMI-8226 leukemia = tested on: RPMI-8226 leukemia
NCI/ADR-RES ovarian = tested on: NCI/ADR-RES ovarian
UACC-257 melanoma = tested on: UACC-257 melanoma
HOP-92 NSCLC = tested on: HOP-92 NSCLC
K-562 leukemia = tested on: K-562 leukemia
U251 CNS = tested on: U251 CNS
EKVX NSCLC = tested on: EKVX NSCLC
SN12C renal = tested on: SN12C renal
MALME-3M melanoma = tested on: MALME-3M melanoma
COLO 205 colon = tested on: COLO 205 colon
TK-10 renal = tested on: TK-10 renal
NCI-H460 lung = tested on: NCI-H460 lung
KM12 colon = tested on: KM12 colon
NCI-H522 lung = tested on: NCI-H522 lung
SW-620 colon = tested on: SW-620 colon
786-0 renal = tested on: 786-0 renal
UO-31 renal = tested on: UO-31 renal
ACHN renal = tested on: ACHN renal
CCRF-CEM leukemia = tested on: CCRF-CEM leukemia
HOP-62 NSCLC = tested on: HOP-62 NSCLC
SF-295 CNS = tested on: SF-295 CNS
NCI-H23 lung = tested on: NCI-H23 lung
DMS 114 small cell lung = tested on: DMS 114 small cell lung
SNB-78 CNS = tested on: SNB-78 CNS
KM20L2 colon = tested on: KM20L2 colon
DLD-1 colon = tested on: DLD-1 colon
LXFL 529 NSCLC = tested on: LXFL 529 NSCLC
M19-MEL melanoma = tested on: M19-MEL melanoma

Compound: S=c1nc2[nH]c3ccc(Br)cc3c2n[nH]1
- TGI (NCI-H226 lung): > 100 µM
- TGI (CAKI-1 renal): > 100 µM
- TGI (SF-268 CNS): > 100 µM
- TGI (HCC-2998 colon): > 100 µM
- TGI (LOX IMVI melanoma): 79.7 µM
- TGI (MCF7 breast): 44.4 µM
- TGI (SK-MEL-28 melanoma): > 100 µM
- TGI (MOLT-4 leukemia): > 100 µM
- TGI (OVCAR-3 ovarian): > 100 µM
- TGI (HS 578T breast): > 100 µM
- TGI (SK-OV-3 ovarian): > 100 µM
- TGI (SNB-19 CNS): > 100 µM
- TGI (DU-145 prostate): > 100 µM
- TGI (HCT-116 colon): > 100 µM
- TGI (MDA-N): 30.7 µM
- TGI (A498 renal): > 100 µM
- TGI (SF-539 CNS): > 100 µM
- TGI (RXF 393 renal): > 100 µM
- TGI (OVCAR-8 ovarian): > 100 µM
- TGI (UACC-62 melanoma): > 100 µM
- TGI (A549 NSCLC): > 100 µM
- TGI (SK-MEL-2 melanoma): 90 µM
- TGI (T-47D breast): > 100 µM
- TGI (OVCAR-5 ovarian): > 100 µM
- TGI (MDA-MB-231 breast): > 100 µM
- TGI (IGROV1 ovarian): > 100 µM
- TGI (MDA-MB-435): 38.4 µM
- TGI (M14 melanoma): > 100 µM
- TGI (OVCAR-4 ovarian): > 100 µM
- TGI (HT29 colon): > 100 µM
- TGI (SK-MEL-5 melanoma): > 100 µM
- TGI (HL-60(TB) leukemia): 50.5 µM
- TGI (HCT-15 colon): > 100 µM
- TGI (SR leukemia): 69.3 µM
- TGI (PC-3 prostate): > 100 µM
- TGI (SNB-75 CNS): 94.9 µM
- TGI (BT-549 breast): > 100 µM
- TGI (RPMI-8226 leukemia): > 100 µM
- TGI (NCI/ADR-RES ovarian): > 100 µM
- TGI (UACC-257 melanoma): > 100 µM
- TGI (HOP-92 NSCLC): > 100 µM
- TGI (K-562 leukemia): > 100 µM
- TGI (U251 CNS): > 100 µM
- TGI (EKVX NSCLC): > 100 µM
- TGI (SN12C renal): > 100 µM
- TGI (MALME-3M melanoma): > 100 µM
- TGI (COLO 205 colon): > 100 µM
- TGI (TK-10 renal): > 100 µM
- TGI (NCI-H460 lung): > 100 µM
- TGI (KM12 colon): > 100 µM
- TGI (NCI-H522 lung): > 100 µM
- TGI (SW-620 colon): > 100 µM
- TGI (786-0 renal): > 100 µM
- TGI (UO-31 renal): > 100 µM

Compound: CC1CC[C@@]2(OC1)O[C@H]1C[C@H]3[C@@H]4CC[C@H]5C[C@@H](OC6OC(CO)C(OC7OC(CO)C(OC8OC(CO)C(O)C(OC9OC(C)C(OC%10OC(C)C(O)C(O)C%10O)C(O)C9O)C8OC8OCC(O)C(O)C8O)C(O)C7O)C(O)C6O)CC[C@]5(C)[C@H]4CC(=O)[C@]3(C)[C@H]1[C@@H]2C (some centres undefined)
- TGI (NCI-H226 lung): 35.5 µM
- TGI (CAKI-1 renal): 29.3 µM
- TGI (SF-268 CNS): 56.9 µM
- TGI (HCC-2998 colon): 32.8 µM
- TGI (LOX IMVI melanoma): 53.5 µM
- TGI (MCF7 breast): 31.8 µM
- TGI (SK-MEL-28 melanoma): 34.3 µM
- TGI (MOLT-4 leukemia): 34.6 µM
- TGI (OVCAR-3 ovarian): 42.3 µM
- TGI (HS 578T breast): 50.7 µM
- TGI (SK-OV-3 ovarian): 41.6 µM
- TGI (SNB-19 CNS): 39.4 µM
- TGI (DU-145 prostate): 40.4 µM
- TGI (HCT-116 colon): 52.9 µM
- TGI (MDA-N): 39.4 µM
- TGI (A498 renal): 32.1 µM
- TGI (ACHN renal): 30.9 µM
- TGI (SF-539 CNS): 28.5 µM
- TGI (RXF 393 renal): 35.7 µM
- TGI (OVCAR-8 ovarian): 38.4 µM
- TGI (UACC-62 melanoma): 32.8 µM
- TGI (A549 NSCLC): 51.3 µM
- TGI (SK-MEL-2 melanoma): 30 µM
- TGI (T-47D breast): 43.2 µM
- TGI (CCRF-CEM leukemia): 29.2 µM
- TGI (OVCAR-5 ovarian): 40.3 µM
- TGI (MDA-MB-231 breast): 30.1 µM
- TGI (IGROV1 ovarian): 37.4 µM
- TGI (MDA-MB-435): 35.7 µM
- TGI (M14 melanoma): 41.7 µM
- TGI (OVCAR-4 ovarian): 32.7 µM
- TGI (HT29 colon): > 100 µM
- TGI (SK-MEL-5 melanoma): 30.4 µM
- TGI (HL-60(TB) leukemia): 27.6 µM
- TGI (HCT-15 colon): 35.2 µM
- TGI (SR leukemia): 30.3 µM
- TGI (PC-3 prostate): 30.9 µM
- TGI (HOP-62 NSCLC): 45.5 µM
- TGI (SNB-75 CNS): 36.5 µM
- TGI (BT-549 breast): 37 µM
- TGI (RPMI-8226 leukemia): 33.3 µM
- TGI (SF-295 CNS): 39.3 µM
- TGI (NCI/ADR-RES ovarian): 43.2 µM
- TGI (UACC-257 melanoma): 32.3 µM
- TGI (HOP-92 NSCLC): 38.2 µM
- TGI (K-562 leukemia): 32.7 µM
- TGI (U251 CNS): 33.3 µM
- TGI (EKVX NSCLC): 40.4 µM
- TGI (SN12C renal): 40.9 µM
- TGI (MALME-3M melanoma): 41.3 µM
- TGI (COLO 205 colon): 30.1 µM
- TGI (TK-10 renal): 31.5 µM
- TGI (NCI-H460 lung): 32.9 µM
- TGI (KM12 colon): 36.1 µM
- TGI (NCI-H522 lung): 42.4 µM
- TGI (SW-620 colon): 42 µM
- TGI (786-0 renal): 54.9 µM
- TGI (NCI-H23 lung): 35.8 µM
- TGI (UO-31 renal): 44.5 µM

Compound: O=C1c2ccccc2C(=O)c2c1ccc1c2N=C(c2ccc(F)cc2)CC(c2ccc(Cl)c(Cl)c2)N1 (centres undefined)
- TGI (NCI-H226 lung): 65.6 µM
- TGI (CAKI-1 renal): 17 µM
- TGI (SF-268 CNS): 32.1 µM
- TGI (HCC-2998 colon): 27.8 µM
- TGI (LOX IMVI melanoma): 18.3 µM
- TGI (SK-MEL-28 melanoma): 36 µM
- TGI (MOLT-4 leukemia): > 100 µM
- TGI (DMS 114 small cell lung): 21.7 µM
- TGI (SK-OV-3 ovarian): 48.9 µM
- TGI (SNB-19 CNS): 25.8 µM
- TGI (HCT-116 colon): 23.7 µM
- TGI (A498 renal): 54.9 µM
- TGI (SNB-78 CNS): 41.5 µM
- TGI (ACHN renal): 27.8 µM
- TGI (SF-539 CNS): 34.9 µM
- TGI (KM20L2 colon): 30.8 µM
- TGI (OVCAR-8 ovarian): 26.6 µM
- TGI (UACC-62 melanoma): 25.7 µM
- TGI (A549 NSCLC): 47.6 µM
- TGI (SK-MEL-2 melanoma): 29.3 µM
- TGI (DLD-1 colon): 31.8 µM
- TGI (CCRF-CEM leukemia): 17.7 µM
- TGI (OVCAR-5 ovarian): 28 µM
- TGI (IGROV1 ovarian): 23.4 µM
- TGI (M14 melanoma): 37.7 µM
- TGI (OVCAR-4 ovarian): 37 µM
- TGI (HT29 colon): 26.3 µM
- TGI (SK-MEL-5 melanoma): 31 µM
- TGI (HL-60(TB) leukemia): 35.9 µM
- TGI (HCT-15 colon): 19.8 µM
- TGI (SR leukemia): 54.4 µM
- TGI (HOP-62 NSCLC): 58.2 µM
- TGI (SNB-75 CNS): 40.2 µM
- TGI (LXFL 529 NSCLC): 30 µM
- TGI (M19-MEL melanoma): 40.4 µM
- TGI (RPMI-8226 leukemia): 19.3 µM
- TGI (SF-295 CNS): 28.6 µM
- TGI (UACC-257 melanoma): 50 µM
- TGI (HOP-92 NSCLC): 90 µM
- TGI (K-562 leukemia): 33.5 µM
- TGI (U251 CNS): 24.7 µM
- TGI (EKVX NSCLC): 20.3 µM
- TGI (SN12C renal): 32.4 µM
- TGI (COLO 205 colon): 33.4 µM
- TGI (TK-10 renal): 34 µM
- TGI (NCI-H460 lung): 43 µM
- TGI (KM12 colon): 19.4 µM
- TGI (NCI-H522 lung): 20.4 µM
- TGI (SW-620 colon): 19 µM
- TGI (NCI-H23 lung): 33.4 µM
- TGI (UO-31 renal): 23.5 µM
